Patent publication US20090131354A1, “miR-126 REGULATED GENES AND PATHWAYS AS TARGETS FOR THERAPEUTIC INTERVENTION” (priority 2007, published 2009)

Assays:
SCLC and NSCLC cells = conditions: various lung cancer cells; cited from earlier work
[1] = system: human leukemia cells (Jurkat) and normal human T cells; conditions: cited from earlier work
[2] = system: HCC2935 lung cancer cells; assay: Alamar Blue proliferation assay, HCC2935; assay type: cell-based, human; conditions: HCC2935, 30 nM, 72 h, relative to NC miRNA (100%)
Text: The inventors assessed the therapeutic effect of hsa-miR-126 for lung cancer by using 11 individual lung cancer cell lines. To measure cellular proliferation of lung cancer cells, the following non-small cell lung cancer (NSCLC) cells were used: cells derived from lung adenocarcinoma (A549, H1299, H522, H838, Calu-3, HCC827, HCC2935), cells derived from lung squamous cell carcinoma (H520, H226), cells derived from lung bronchioalveolar carcinoma (H1650), and cells derived from lung large cell carcinoma (H460). Synthetic hsa-miR-126 (Pre-miR™-hsa-miR-126, Ambion cat. no. AM17100) or negative control (NC) miRNA (Pre-miR™ microRNA Precursor Molecule-Negative Control #2; Ambion cat. no. AM17111) was delivered via lipid-based transfection into A549, H1299, H522, H838, Calu-3, HCC827, HCC2935, H520, H1650, and H460 cells, and via electroporation into H226 cells.
Lipid-based reverse transfections were carried out in triplicate according to a published protocol (Ovcharenko et al., 2005) and the following parameters: Cells (5,000-12,000 per 96 well), 0.1-0.2 μl Lipofectamine™ 2000 (cat. no. 11668-019, Invitrogen Corp., Carlsbad, Calif., USA) in 20 μl OptiMEM (Invitrogen), 30 nM final concentration of miRNA in 100 μl. […]

[3] = system: Du145 prostate cancer cells; assay: Long-term growth curve with repeated electroporation, Du145; assay type: cell-based, human
Text: To evaluate the therapeutic activity of hsa-miR-126 over an extended period of time, we conducted growth curve experiments in the presence of miRNA for up to 21 days. Since in vitro transfections of naked interfering RNAs, such as synthetic miRNA, are transient by nature and compromised by the dilution of the oligonucleotide during ongoing cell divisions, we administered miRNA at multiple time points (Bartlett and Davis, 2006; Bartlett and Davis, 2007). To accommodate miRNA delivery into a large quantity of cells, we employed the electroporation method to delivery hsa-miR-126 or negative control miRNA into PPC-1, PC3 and Du145 human prostate cancer cells. Briefly, 1×10^6 PPC-1 or PC3 cells, and 0.5×10^6 Du145 cells were electroporated with 1.6 μM hsa-miR-126 or negative control using the BioRad Gene Pulser Xcell™ instrument (BioRad Laboratories Inc., Hercules, Calif., USA), seeded and propagated in regular growth medium. Experiments with PC3 and Du145 cells were carried out in triplicates. When the control cells reached confluence (days 4 and 11 for PPC-1; days 7 and 14 for PC3 and Du145), cells were harvested, counted and electroporated again with the respective miRNAs. […] The population doubling was calculated from these electroporation events using the formula PD=ln(Nf/N0)/ln2, and cell counts were extrapolated and plotted on a linear scale (FIGS. 10-12). […]

[4] = system: human H460 lung cancer xenografts; assay: H460 lung cancer xenograft, cells electroporated before implantation; assay type: in vivo, NOD/SCID mice; conditions: H460, day 7
Procedure: The inventors assessed the growth-inhibitory activity of hsa-miR-126 in human lung cancer xenografts grown in immunodeficient mice. Hsa-miR-126 was delivered into A549 and H460 lung cancer cells via electroporation using the Gene Pulser Xcell™ (BioRad) with the following settings: 15×10^6 cells with 5 μg miRNA in 200 μl OptiMEM, square wave pulse at 150 V for 10 ms. Electroporated cells (5×10^6) were mixed with BD Matrigel™, (BD Biosciences; San Jose, Calif., USA; cat. no. 356237) in a 1:1 ratio and injected subcutaneously into the flank of NOD/SCID mice (Charles River Laboratories, Inc.; Wilmington, Mass., USA). As a negative control, A549 and H460 cells were electroporated with negative control (NC) miRNA (Pre-miR™ microRNA Precursor Molecule-Negative Control #2; Ambion cat. no. AM17111) as described above. To assess the anti-oncogenic activity of hsa-miR-126, six animals were injected with A459 cells and six animals were injected with H460 cells. NC miRNA-treated cells were injected into the opposite flank of the same animal to control for animal-to-animal variability. Once tumors reached a measurable size (A549 at 7 days post injection; H460 at 5 days post injection), the length and width of tumors were determined every day for up to 11 days. Tumor volumes were calculated using the formula, Volume=length X width X width/2, in which the length is greater than the width. […]

Compound	IC50 (SCLC and NSCLC cells) [µM]	effect on proliferation [1]	% proliferation [2] [%]	inhibition of cell growth ([3]; Du145, day 20, 1.6 μM repeated electroporation, relative to control cells (100%)) [%]	remaining cells ([3]; Du145, day 20, relative to control cells (100%)) [%]	tumor size relative to control tumors [4]
COc1cc([C@@H]2c3cc4c(cc3[C@@H](O[C@@H]3O[C@@H]5CO[C@@H](C)O[C@H]5[C@H](O)[C@H]3O)[C@H]3COC(=O)[C@H]23)OCO4)cc(OC)c1O [etoposide]	1 to 25					
hsa-miR-126 (UCGUACCGUGAGUAAUAAUGC; synthetic pre-miR form, further chemistry not given here) [Synthetic hsa-miR-126 (Pre-miR™-hsa-miR-126, Ambion cat. no. AM17100)]		increasing the proliferation	66.89	83.9	16.1	smaller in size
